From US12336989B2, “Transmucosal methods for treating psychiatric and neurological conditions” (INTRA-CELLULAR THERAPIES, INC., priority 2017, dated 2025)

Experiments:
[1] = Example 2: pharmacokinetics of oral dosing in dogs; type: in vivo, beagle dogs; conditions: sublingual and subcutaneous dosing at 1.0 mg/kg vs oral 15 mg/kg
Method: For control, the dogs are administered empty capsules. For the Compound of Formula I, the dogs are administered normal-release oral capsules. Blood samples are obtained at 0.25 hours, 0.5 hours, 1 hour, 4 hours, 8 hour and 24 hours. […] Cmax, Tmax and area-under-the-curve (AUC, 0-24 hours) are calculated using Phoenix WinNonlin software.

[2] = biological target: H1 histaminergic receptors (Homo sapiens, UniProt P35367); conditions: cited from earlier work
H1 histaminergic receptors, sequence (P35367 whole entry): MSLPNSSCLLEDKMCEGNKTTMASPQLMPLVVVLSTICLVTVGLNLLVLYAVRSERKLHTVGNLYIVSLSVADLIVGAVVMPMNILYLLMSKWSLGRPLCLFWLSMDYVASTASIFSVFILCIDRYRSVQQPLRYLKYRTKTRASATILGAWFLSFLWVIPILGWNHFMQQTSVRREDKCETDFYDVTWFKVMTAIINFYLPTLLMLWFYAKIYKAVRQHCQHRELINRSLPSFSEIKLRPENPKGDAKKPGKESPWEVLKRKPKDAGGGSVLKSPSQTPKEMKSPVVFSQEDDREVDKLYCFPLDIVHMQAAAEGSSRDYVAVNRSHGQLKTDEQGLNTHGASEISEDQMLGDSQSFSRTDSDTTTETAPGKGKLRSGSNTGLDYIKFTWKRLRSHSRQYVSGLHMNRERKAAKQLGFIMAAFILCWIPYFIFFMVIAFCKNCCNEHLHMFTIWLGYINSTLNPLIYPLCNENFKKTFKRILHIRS

[3] = biological target: T1, 5-HT2C receptors (Homo sapiens, UniProt P28335); conditions: cited from earlier work
T1 sequence (P28335 33-458): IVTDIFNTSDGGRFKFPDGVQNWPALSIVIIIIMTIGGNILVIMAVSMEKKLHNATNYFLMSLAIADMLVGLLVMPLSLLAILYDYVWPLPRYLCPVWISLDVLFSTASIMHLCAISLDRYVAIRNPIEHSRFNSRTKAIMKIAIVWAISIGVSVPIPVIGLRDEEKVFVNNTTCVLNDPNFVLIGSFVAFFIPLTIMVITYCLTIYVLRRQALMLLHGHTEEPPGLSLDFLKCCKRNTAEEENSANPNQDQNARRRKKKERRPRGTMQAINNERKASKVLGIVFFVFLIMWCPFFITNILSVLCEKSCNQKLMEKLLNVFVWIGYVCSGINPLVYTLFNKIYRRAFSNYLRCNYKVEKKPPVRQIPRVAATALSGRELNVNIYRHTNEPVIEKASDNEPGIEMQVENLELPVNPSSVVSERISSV

[4] = tested on: muscarinic receptors; conditions: cited from earlier work

## CN1CCN2c3c(cccc31)[C@@H]1CN(CCCC(=O)c3ccc(F)cc3)CC[C@@H]12 [Compound of Formula I, 1-(4-fluoro-phenyl)-4-((6bR,10aS)-3-methyl-2,3,6b,9,10,10a-hexahydro-1H,7H-pyrido[3′,4′:4,5]pyrrolo[1,2,3-de]quinoxalin-8-yl)-butan-1-one]
[1]
  24-hour AUC, times higher than oral dosing at 15 mg/kg: about three
[2]
  binding to H1 histaminergic receptors: negligible binding
[3]
  binding to 5-HT2C receptors: negligible binding
[4]
  binding to muscarinic receptors: negligible binding
